According to patent US20180071280A1, “MODULATORS OF CELL DEATH PROCESSES” (URIFER LTD., priority 2015, published 2018):

Tests used:
Format in all cases: cell-based, human
[1] = system: malignant cells (CC and MDA cells); experiment: Cellular ATP level (HPLC) in malignant cells; conditions: SW620, co-treatment with 0260
Method: Quantification of intracellular ATP was carried out using HPLC as previously described.
Cells were suspended in 400 μl cold 0.4M perchloric acid solution, incubated on ice for 15 min, centrifuged at 12,000×g, neutralized with 4M K2CO3 to pH 7.5, incubated for 15 min on ice and concentrated (10,000×g). Chromatographic analyses were performed using Hitachi Elite LaChrom system at 30° C. applying supernatants to SUPELCOSIL™ LC-18-S HPLC Column (5 μm particle size, L×I.D. 25 cm×2.1 mm), flow rate 0.2 mL/min under isocratic elution conditions (50 mM potassium phosphate, 100 mM triethylamine, pH 6.5 (adjusted with phosphoric acid)):Acetonitrile (98.5:1.5)). Each analysis cycle was set to 30 min, chromatographic flow was monitored at 260 nm and integrated using EZChrom Elite Software.

SW620 CC cells = experiment: MultiTox-Fluor cytotoxicity assay in SW620 CC cells
Method: Cell lines (HCT116, ht29, Rko, Hep3B, SW48, SW620, MDA-MB-231, PANC-1, su.86.86, Hfb) were obtained from the American Type Culture Collection (ATCC). Cell type authentication was carried out by microscope and DNA profiles using short tandem repeat analysis. Cells were grown in Minimum Essential Medium (MEM) containing 10% heat-inactivated Fetal Bovine Serum (FBS) or in Dulbecco's Modified Eagle's Medium (DMEM) containing 10% FBS, where specified, at 37° C. with 5% CO2. In general, the in-vitro experiments were carried out with 2. μM 0260 added into the growth medium. Dose response experiments included increasing 0260 concentrations. Cell death levels were determined using the MultiTox-Fluor Multiplex Cytotoxicity Assay (G9201, Promega, USA). In brief, 10,000 cells were seeded in black bottom 96 wells plate and were allowed to attach to the plate bottom for 16 h before the administration of various 0260 concentration in each well. Cell death levels were determined according to the manufacturer's protocol.
Cells death level was determined using the MultiTox-Fluor Multiplex Cytotoxicity Assay (G9201, Promega, USA) according to the manufacturer's protocol.

PARP-1 = PARP-1 poly-ADP-ribosylation activity in CC cells (WB); conditions: co-treatment with 0260
Method: (§1) WB analyses were carried out as previously described before. In brief, cells were lysed in RIPA buffer mixed with protease inhibitors and separated on SDS-PAGE gel, transferred to PVDF membrane treated with 5% skim milk to exclude non-specific background and incubated with a primary antibody over-night. The membrane was incubated for 1 h with a secondary antibody conjugated to Horseradish Peroxidase (HRP). The protein-antibody complex was visualized using the SuperSignal West Pico Chemiluminescent Substrate (Thermo scientific, USA).

CC cells = experiment: Autophagy in CC cells (TEM, LC3 immuno-staining, WB); conditions: co-treatment with 0260
Method: as §1
Cells were fixed with 4% paraformaldehyde (30 min) and incubated with Permeabilization Solution containing 0.1% Triton X-100 (Sigma-Aldrich, Israel) in PBS at room temperature for 1 h. Nonspecific binding was blocked with PBS containing 10% fetal bovine serum for 1 h at room temperature. Cells were incubated with specific antibodies diluted 1:100 overnight at 4° C. Cells were washed (5 min) in PBS containing 0.2% Tween-20 (Sigma-Aldrich, Israel) to remove non-specific binding. Bound primary antibodies were detected by Alexa Fluor® 488 goat anti-mouse IgG antibody or Alexa Fluor® 594 goat anti-rabbit IgG antibody (Molecular Probes, Invitrogen, U.K.). Nuclei were visualized by incubation with Hoechst 33342 solution for 10 min (1:500). Nonspecific staining, as determined by binding to the secondary antibody only, was negligible. The immunostained slides were examined under the fluorescence microscope AxioimagerZ1 (Zeiss, Germany) or confocal fluorescence microscope (Olympus-FV1000).
Cells were grown in MEM or DMEM, washed twice with PBS and fixed for 5 minutes in Karnovsky fixative (2.5% glutaraldehyde, 2.5% paraformaldehyde in cacodylate buffer pH 7.4) on the tissue culture plate. Cells were then harvested, and transferred to 1.5 ml tube for further 1 h fixation at room temperature. The cells were then stored O.N at 4C° after which the samples were washed in 0.1 M cacodylate buffer and post-fixed with 1% OsO4 in 0.1 M sodium cacodylate buffer (Sigma-Aldrich, Israel) for 1 h. […]

Compound	ATP level in 0260 treated cells with autophagy inhibitor [1]	death levels of 0260 treated cells with autophagy inhibitor (SW620 CC cells; SW620, co-treatment with 0260)	0260-induced poly-ADP-ribosylation activity with PARP-1 inhibitor (PARP-1)	decrease of 0260-induced death (SW620 CC cells; CC cells, co-treatment with 0260) [%]	induced autophagy with PARP-1 inhibition (LC3II to LC3 I ratio) (CC cells)
Cn1cnc(N)c2ncnc1-2 [3-MA, 3-Methyladenine, reference compound]	almost completely restored the ATP level	reduced death levels	–	–	–
NC(=O)c1cccc(N)c1 [3AB, 3-Aminobenzamide, reference compound]	–	–	abolished	50	decreased LC3II to LC3 I ratio
